Data set [1] deals with γH2AX in HCC1428 tumor tissue. Put plainly: γH2AX immunohistochemistry of HCC1428 xenograft tumor tissue (Study 2). In kind it is in vivo, BALB/c nude mice. The settings on record: vehicle 2.4%. Here is the method: The mice in the 50 mg/kg BID group were dosed every day whereas the mice in the […] were dosed for the first 5 days of each 7-day cycle, such that the total weekly dose was the same between these two groups. At the end of the study, tumor tissue was collected for the vehicle, 50 mg/kg BID, and 30, 50 and 100 mg/kg QD dose groups and formalin-fixed and paraffin embedded (FFPE) for γH2AX immunohistochemistry. γH2AX expression in FFPE tumor tissue was evaluated by staining and was performed using immunohistochemistry and validated antibody conditions at Histowiz (Long Island City, NY, USA). The γH2AX IHC images were then quantified in-house using QuPath software. The total number of nuclei objects per tumor section based on hematoxylin counter-staining (blue) were segmented using a Stardist algorithm and the number of γH2AX positive DAB (3,3′ Diaminobenzidine) stained cells (brown) quantified using object classification with a pre-trained random forest model based on DAB staining parameters including intensity and standard deviation.
% γH2AX positive=(#γH2AX positive nuclei/#total nuclei)*100
Statistical analysis of the γH2AX staining was conducted using Ordinary one-way ANOVA with Dunnett's multiple comparisons test and differences considered significant at a calculated probability p≤0.05.

Data set [2] deals with RMUG-S ovarian cancer xenograft. In words: RMUG-S ovarian cancer CDX model. It is filed as in vivo, NOD SCID or NOG mice. Here is the method:
The CDX model was established by subcutaneous inoculation of 1×10^7 viable RMUG-S cells into the right flank of NOD SCID or NOG mice. […] Compound 1 was administered to mice orally either once daily (QD) or twice daily (BID) for 32-50 days. Compound 1 was administered to mice continuously throughout the treatment period (7/7 days) or intermittently from Monday-Friday (5/7 days), or Monday-Thursday (4/7 days) during the treatment period.
For all studies, tumor volumes and body weights were measured twice weekly. […] Statistical analysis of end-of-study mean tumor volumes for the T025OV model was performed using an unpaired t-test with Welch's correction.

Data set [3] relates to T025OV ovarian cancer patient-derived organoid. In words: 7-day organoid colony formation, ATP content (Cell Titer Glo 3D). It is filed as cell-based. The settings on record: Homo sapiens, 168 h, T025OV PDO, 7 days, geometric mean. The source says:
The FU-97 (Cat #JCRB1074) human gastric cancer cell line and the Kuramochi (Cat #JCRB0098) and RMUG-S(Cat #IFO50320) human ovarian cancer cell lines were obtained from the National Institutes of Biomedical Innovation, Health and Nutrition's Japanese Collection of Research Bioresources (JCRB) (Ibaraki City, Osaka, Japan). The HCC1419 (Cat #CRL-2326) and HCC1428 (Cat #CRL-2327) human breast cancer cell lines and the NCI-H1650 (Cat #CRL-5883) and NCI-H1792 (Cat #CRL-5895) non-small cell lung cancer cell lines were obtained from ATCC (Manassas, Virginia, USA). The human gastric cancer cell lines GCIY (Cat #RCB0555) and SNU601 (Cat #CSC-C9686L) were obtained from the Riken Bioresource Research Center (Tsukuba, Ibaraki, Japan) and Creative Bioarray (Shirley, NY, USA), respectively. The T025OV ovarian cancer organoid model was developed from a patient-derived xenograft (PDX) model, which was developed from primary serous ovarian carcinoma cells obtained from Discovery Life Sciences (Huntsville, AL, USA, SN #350627149). […]
Compound 1 IC50 values for inhibition of organoid colony formation were determined by measuring ATP levels after 7 days of treatment utilizing Cell Titer Glo 3D reagent (Promega, Madison, WI, USA Cat #G9683). […] Luminescence values (RLU) were read-out using a Clariostar plate reader (BMG Labtech, Cary, NC). […]

Structures are written as SMILES.

For `[2H]C([2H])(c1cnn(C)c1)N1C(=O)c2cc(S(=O)(=O)NC3(C)CC3)ccc2N2C1=NC[C@H]2C` [Compound 1, (R)-1-methyl-4-((1-methyl-1H-pyrazol-4-yl)methyl-d2)-N-(1-methylcyclopropyl)-5-oxo-1,2,4,5-tetrahydroimidazo[1,2-a]quinazoline-7-sulfonamide], the “% γH2AX positive cells in tumor tissue” value is 3.7% +/− 0.4 in data set [1] (30 mg/kg QD), 6.8% +/− 0.4 in data set [1] (50 mg/kg BID), 4.2% +/− 0.3 in data set [1] (50 mg/kg QD) and 5.9% +/− 0.5 in data set [1] (100 mg/kg QD). In addition, in data set [2] (first study, highest dose group), the “mean body weight gain over the treatment period” value worked out at 5%. Besides, the “tolerability (body weight)” value in data set [2] (second study) is on record as “generally well tolerated”. The IC50 in data set [3] (read-out: IC50 inhibition of ATP content) was 1.07 µM. Also, in data set [3] (read-out: IC90 inhibition of ATP content), the IC90 worked out at 10.7 µM.
